Assay in all cases: relative viability (nuclei count vs DMSO), 5 days (fraction); higher = more cells survive
Compound in assay [1]: CNC(=O)c1ccccc1Sc1ccc2c(/C=C/c3ccccn3)n[nH]c2c1 [Axitinib] + NC(=O)Nc1cc(-c2cccc(F)c2)sc1C(=O)N[C@H]1CCCNC1 [AZD7762] (partner 0.2 µM)
Summed up: (§1)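 A single step with final 0.05% Triton X-100, 1% formaldehyde and 1 ug/ml Hoechst fixed the cells and stained nuclei 5 days after treatment. Lung cancer cell lines in 1536-well plates had been treated by pin tool the day after seeding with one drug alone or a fixed anchor-drug dose plus five library-drug doses (not always all listed) in √10 steps, and nuclei were counted on 4× images. Relative viability is the ratio of nuclei in treated wells to nuclei in vehicle wells, taken as the median of duplicate plates.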

Compound in assay [2]: Nc1nc(Nc2ccc3c(c2)CC[C@@H](N2CCCC2)CC3)nn1-c1cc2c(nn1)-c1ccccc1CCC2 [Bemcentinib] + Nc1ncn([C@H]2C[C@H](O)[C@@H](CO)O2)c(=O)n1 [Decitabine] (partner 2 µM)
Summed up:
as §1

Compound in assay [3]: CNC(=O)c1ccccc1Sc1ccc2c(/C=C/c3ccccn3)n[nH]c2c1 [Axitinib] + Cc1nc(Nc2ncc(C(=O)Nc3c(C)cccc3Cl)s2)cc(N2CCN(CCO)CC2)n1 [Dasatinib] (partner 0.075 µM)
In a few lines:
as §1

Compound in assay [4]: CNC(=O)c1ccccc1Sc1ccc2c(/C=C/c3ccccn3)n[nH]c2c1 [Axitinib] + N=C(N)NC(=N)NCCc1ccccc1 [Phenformin] (partner 250 µM)
Summed up: as §1

This note sets out measurements from the supplement of paper PMC10307832.

Turning to NCI-H1793, the relative viability in assay [1] (first compound 0.005 µM) turned out to be 0.514; in assay [1] (first compound 0.01581 µM), 0.394; in assay [1] (first compound 0.05 µM) it was 0.565; in assay [1] (first compound 0.1581 µM) it was 0.304; in assay [1] (first compound 0.5 µM), 0.486; in assay [2] (first compound 0.04 µM), 0.475. Further, the relative viability in assay [2] (first compound 0.1265 µM) was determined as 0.495; in assay [2] (first compound 0.4 µM) it was 0.5; in assay [2] (first compound 1.265 µM), 0.549; in assay [2] (first compound 4 µM), 0.586; in assay [3] (first compound 0.005 µM), 0.406; in assay [3] (first compound 0.01581 µM), 0.405. The relative viability in assay [3] (first compound 0.05 µM) was 0.394; in assay [3] (first compound 0.1581 µM), 0.293; in assay [3] (first compound 0.5 µM) it was 0.301; in assay [4] (first compound 0.005 µM), 0.393; in assay [4] (first compound 0.01581 µM), 0.4; in assay [4] (first compound 0.05 µM), 0.415. The relative viability was determined as 0.358 in assay [4] (first compound 0.1581 µM) and 0.328 in assay [4] (first compound 0.5 µM).
For the cell line NCI-H1915, the relative viability in assay [1] (first compound 0.005 µM) is 0.743; in assay [1] (first compound 0.01581 µM), 0.671; in assay [1] (first compound 0.05 µM), 0.71; in assay [1] (first compound 0.1581 µM), 0.713; in assay [1] (first compound 0.5 µM) it was 0.717; in assay [2] (first compound 0.04 µM), 0.24. The relative viability in assay [2] (first compound 0.1265 µM) was determined as 0.25; in assay [2] (first compound 0.4 µM), 0.255; in assay [2] (first compound 1.265 µM) it was 0.252; in assay [2] (first compound 4 µM), 0.257; in assay [3] (first compound 0.005 µM), 0.307; in assay [3] (first compound 0.01581 µM), 0.289. Besides, the relative viability came out at 0.315 in assay [3] (first compound 0.05 µM); 0.29 in assay [3] (first compound 0.1581 µM); 0.252 in assay [3] (first compound 0.5 µM); 0.385 in assay [4] (first compound 0.005 µM); 0.362 in assay [4] (first compound 0.01581 µM); 0.371 in assay [4] (first compound 0.05 µM). The figures for the relative viability in assay [4] (first compound 0.1581 µM) and in assay [4] (first compound 0.5 µM) were 0.35 and 0.393, respectively.
For NCI-H1944, the relative viability worked out at 0.586 in assay [1] (first compound 0.005 µM); 0.441 in assay [1] (first compound 0.01581 µM); 0.506 in assay [1] (first compound 0.05 µM); 0.447 in assay [1] (first compound 0.1581 µM); 0.541 in assay [1] (first compound 0.5 µM); 0.413 in assay [2] (first compound 0.04 µM). Besides, the relative viability in assay [2] (first compound 0.1265 µM) amounted to 0.39; in assay [2] (first compound 0.4 µM), 0.443; in assay [2] (first compound 1.265 µM) it was 0.443; in assay [2] (first compound 4 µM), 0.417; in assay [3] (first compound 0.005 µM), 0.213; in assay [3] (first compound 0.01581 µM), 0.223. Besides, the relative viability in assay [3] (first compound 0.05 µM) worked out at 0.214; in assay [3] (first compound 0.1581 µM) it was 0.202; in assay [3] (first compound 0.5 µM), 0.188; in assay [4] (first compound 0.005 µM), 0.204; in assay [4] (first compound 0.01581 µM), 0.199; in assay [4] (first compound 0.05 µM) it was 0.206. Also, the results for the relative viability in assay [4] (first compound 0.1581 µM) and in assay [4] (first compound 0.5 µM) were 0.191 and 0.189, respectively.
In the case of NCI-H1975, the relative viability was determined as 0.743 in assay [1] (first compound 0.005 µM); 0.733 in assay [1] (first compound 0.01581 µM); 0.698 in assay [1] (first compound 0.05 µM); 0.715 in assay [1] (first compound 0.1581 µM); 0.816 in assay [1] (first compound 0.5 µM); 0.336 in assay [2] (first compound 0.04 µM). Also, the relative viability is 0.384 in assay [2] (first compound 0.1265 µM); 0.394 in assay [2] (first compound 0.4 µM); 0.374 in assay [2] (first compound 1.265 µM); 0.459 in assay [2] (first compound 4 µM); 0.413 in assay [3] (first compound 0.005 µM); 0.342 in assay [3] (first compound 0.01581 µM). Also, the relative viability amounted to 0.393 in assay [3] (first compound 0.05 µM); 0.347 in assay [3] (first compound 0.1581 µM); 0.39 in assay [3] (first compound 0.5 µM); 0.436 in assay [4] (first compound 0.005 µM); 0.43 in assay [4] (first compound 0.01581 µM); 0.408 in assay [4] (first compound 0.05 µM). Also, the relative viability in assay [4] (first compound 0.1581 µM) amounted to 0.391; in assay [4] (first compound 0.5 µM), 0.446.
